Experimental data as given in article PMC7073229, “Novel Quinoline Compounds Active in Cancer Cells through Coupled DNA Methyltransferase Inhibition and Degradation” (Cancers, 2020).

What was measured:
DNMT3A protein = target: T1, DNMT3A protein (Homo sapiens, UniProt Q9Y6K1); assay: Western blot of DNMT3A protein level in HCT116 cells; type: cell-based; conditions: 24 h
T1 construct: endogenous in cells; host or cells: HCT116
From the text: Cells were lysed in Laemmli buffer; subsequently the proteins were resolved by sodium dodecyl sulphate-polyacrylamide gel electrophoresis and transferred to a 0.45 µm nitrocellulose membrane (Bio-Rad Laboratories, Hercules, CA, USA). The following primary antibodies were used for immunoblotting: α-DNMT1 (Novus Biologicals, Littleton, CO, USA). α-DNMT3a (SantaCruz Bio-technologies, CA, USA) and α-GAPDH (Millipore Corp., Bedford, MA USA), used as a loading control. The immune complexes were detected with horseradish peroxidase-conjugated species-specific secondary antiserum (Bio-Rad Laboratories, Hercules, CA, USA) then by enhanced chemiluminescence reaction (Bio-Rad Laboratories, Hercules, CA, USA). Densitometric analysis of protein expression was performed by using the Fiji-Image J image processing package.

RAF-1 kinase (h) = RAF-1 kinase (h) (Homo sapiens, UniProt P04049); assay: Kinase inhibitory assay (panel); type: biochemical; conditions: read-out: % inhibition at 10 µM
Chain of RAF-1 kinase (h) (P04049 whole entry): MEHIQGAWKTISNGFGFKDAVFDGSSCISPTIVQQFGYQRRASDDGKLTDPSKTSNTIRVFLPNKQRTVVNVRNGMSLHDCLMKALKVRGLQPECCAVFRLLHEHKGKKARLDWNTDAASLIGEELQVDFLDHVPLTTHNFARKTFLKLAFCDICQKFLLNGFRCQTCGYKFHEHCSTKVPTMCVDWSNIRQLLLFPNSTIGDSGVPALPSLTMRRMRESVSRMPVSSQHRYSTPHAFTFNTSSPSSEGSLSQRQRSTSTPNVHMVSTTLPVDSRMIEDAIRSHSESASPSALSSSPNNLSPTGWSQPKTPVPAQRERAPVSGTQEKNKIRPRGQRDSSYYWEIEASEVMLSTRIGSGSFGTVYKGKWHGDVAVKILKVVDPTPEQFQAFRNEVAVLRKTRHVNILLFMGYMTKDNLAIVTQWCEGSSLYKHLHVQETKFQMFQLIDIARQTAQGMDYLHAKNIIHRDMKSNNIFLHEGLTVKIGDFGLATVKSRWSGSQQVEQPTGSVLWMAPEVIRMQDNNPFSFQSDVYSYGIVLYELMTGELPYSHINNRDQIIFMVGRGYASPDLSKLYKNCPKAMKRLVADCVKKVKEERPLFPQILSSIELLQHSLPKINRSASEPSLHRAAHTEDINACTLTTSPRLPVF
Experimental: (§1) Experimental procedure of kinase inhibitory assays
(§2) The test compound, reference compound or water (control) were mixed with the enzyme (for the exact amount see table below) in the appropriate buffer. Thereafter, the reaction was initiated by adding the required amount of the appropriate substrate and of ATP, and the mixture is incubated at room temperature (variable reaction time, see table below). For control basal measurements, the enzyme was omitted from the reaction mixture. Following incubation, the reaction was stopped by adding 13 mM
(§3) EDTA. After 5 min, the proper antibody labelled with europium chelate was added. After 60 more min, the fluorescence transfer was measured at λex=337 nm, λem=620 nm and λem=665 nm using a microplate reader (Envision, Perkin Elmer). The enzyme activity was determined by d ividing the signal measured at 665 nm by that measured at 620 nm (ratio). The results are expressed as a percent inhibition of the control enzyme activity. The standard inhibitory reference compound is staurosporine when not differently indicated (see tabl e below), which has been tested in each experiment at several concentrations to obtain an inhibition curve from which its IC 50 value is calculated.
(§4) • Assay volume and format: 10 µL in 384-well plate
(§5) • Compound addition: [100x] solution in solvent then [5x] solution in water • Maximum tolerable DMSO concentration: 1%

IRK (h) (InsR) = IRK (h) (InsR) (Homo sapiens, UniProt P06213); assay: Kinase inhibitory assay (panel); type: biochemical; conditions: read-out: % inhibition at 10 µM
Chain of IRK (h) (InsR) (P06213 28-1382): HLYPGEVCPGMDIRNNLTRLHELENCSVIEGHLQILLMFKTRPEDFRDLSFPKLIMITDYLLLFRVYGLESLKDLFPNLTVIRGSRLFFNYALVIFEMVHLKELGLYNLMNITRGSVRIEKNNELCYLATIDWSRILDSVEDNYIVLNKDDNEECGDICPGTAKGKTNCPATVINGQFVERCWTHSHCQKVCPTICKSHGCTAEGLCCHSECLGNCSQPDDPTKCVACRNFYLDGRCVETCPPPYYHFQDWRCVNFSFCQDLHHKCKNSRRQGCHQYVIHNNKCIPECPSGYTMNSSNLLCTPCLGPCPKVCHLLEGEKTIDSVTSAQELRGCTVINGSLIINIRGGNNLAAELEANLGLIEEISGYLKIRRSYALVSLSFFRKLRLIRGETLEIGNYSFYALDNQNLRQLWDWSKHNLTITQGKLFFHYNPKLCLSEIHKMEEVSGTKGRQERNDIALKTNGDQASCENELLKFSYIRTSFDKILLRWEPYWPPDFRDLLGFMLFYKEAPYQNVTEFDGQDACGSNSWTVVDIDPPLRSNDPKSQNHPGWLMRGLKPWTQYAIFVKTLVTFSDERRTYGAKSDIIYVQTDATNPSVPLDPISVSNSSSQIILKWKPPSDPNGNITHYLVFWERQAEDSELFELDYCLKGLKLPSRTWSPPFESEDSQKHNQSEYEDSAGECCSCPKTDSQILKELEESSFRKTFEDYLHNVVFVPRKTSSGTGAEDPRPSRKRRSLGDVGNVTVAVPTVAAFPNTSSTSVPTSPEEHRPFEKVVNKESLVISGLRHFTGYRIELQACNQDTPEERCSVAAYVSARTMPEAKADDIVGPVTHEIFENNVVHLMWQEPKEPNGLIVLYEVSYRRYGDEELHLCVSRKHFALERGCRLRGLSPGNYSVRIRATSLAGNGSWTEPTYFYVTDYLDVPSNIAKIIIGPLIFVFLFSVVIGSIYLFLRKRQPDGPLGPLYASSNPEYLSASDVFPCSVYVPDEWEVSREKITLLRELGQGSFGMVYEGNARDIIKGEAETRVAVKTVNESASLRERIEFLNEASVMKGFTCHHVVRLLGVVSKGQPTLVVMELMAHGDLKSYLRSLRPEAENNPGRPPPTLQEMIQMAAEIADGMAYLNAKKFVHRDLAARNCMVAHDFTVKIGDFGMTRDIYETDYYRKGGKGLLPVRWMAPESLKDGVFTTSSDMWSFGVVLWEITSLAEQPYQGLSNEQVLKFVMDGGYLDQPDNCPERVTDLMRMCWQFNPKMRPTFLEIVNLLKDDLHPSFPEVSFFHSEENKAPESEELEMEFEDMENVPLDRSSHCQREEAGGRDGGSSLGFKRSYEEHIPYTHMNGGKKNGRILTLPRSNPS
Experimental: as §1, §2, §3, §4, §5

PKCbeta 2 (h) = PKCbeta 2 (h) (Homo sapiens, UniProt P05771); assay: Kinase inhibitory assay (panel); type: biochemical; conditions: read-out: % inhibition at 10 µM
Chain of PKCbeta 2 (h) (P05771 1-673 isoform P05771-2): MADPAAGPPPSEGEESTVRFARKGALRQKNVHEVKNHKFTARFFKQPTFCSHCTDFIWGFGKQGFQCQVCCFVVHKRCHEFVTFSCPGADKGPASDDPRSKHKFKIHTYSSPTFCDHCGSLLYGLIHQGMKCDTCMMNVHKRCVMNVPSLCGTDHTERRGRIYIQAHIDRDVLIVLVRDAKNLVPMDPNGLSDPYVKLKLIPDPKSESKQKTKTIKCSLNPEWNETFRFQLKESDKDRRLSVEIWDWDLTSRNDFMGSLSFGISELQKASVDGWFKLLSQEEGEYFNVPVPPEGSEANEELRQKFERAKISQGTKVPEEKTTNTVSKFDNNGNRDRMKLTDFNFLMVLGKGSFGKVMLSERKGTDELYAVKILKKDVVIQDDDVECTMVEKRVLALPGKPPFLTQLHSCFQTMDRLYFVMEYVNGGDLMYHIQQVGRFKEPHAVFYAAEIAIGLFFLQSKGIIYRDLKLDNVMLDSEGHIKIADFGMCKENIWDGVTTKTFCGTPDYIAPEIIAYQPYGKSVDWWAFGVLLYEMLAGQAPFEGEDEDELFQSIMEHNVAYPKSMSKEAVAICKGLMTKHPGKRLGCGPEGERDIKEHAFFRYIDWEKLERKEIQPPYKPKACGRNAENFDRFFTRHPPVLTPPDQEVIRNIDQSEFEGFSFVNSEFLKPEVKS
Experimental: as §1, §2, §3, §4, §5

TRKA (h) = TRKA (h) (Homo sapiens, UniProt P04629); assay: Kinase inhibitory assay (panel); type: biochemical; conditions: read-out: % inhibition at 10 µM
Chain of TRKA (h) (P04629 33-796): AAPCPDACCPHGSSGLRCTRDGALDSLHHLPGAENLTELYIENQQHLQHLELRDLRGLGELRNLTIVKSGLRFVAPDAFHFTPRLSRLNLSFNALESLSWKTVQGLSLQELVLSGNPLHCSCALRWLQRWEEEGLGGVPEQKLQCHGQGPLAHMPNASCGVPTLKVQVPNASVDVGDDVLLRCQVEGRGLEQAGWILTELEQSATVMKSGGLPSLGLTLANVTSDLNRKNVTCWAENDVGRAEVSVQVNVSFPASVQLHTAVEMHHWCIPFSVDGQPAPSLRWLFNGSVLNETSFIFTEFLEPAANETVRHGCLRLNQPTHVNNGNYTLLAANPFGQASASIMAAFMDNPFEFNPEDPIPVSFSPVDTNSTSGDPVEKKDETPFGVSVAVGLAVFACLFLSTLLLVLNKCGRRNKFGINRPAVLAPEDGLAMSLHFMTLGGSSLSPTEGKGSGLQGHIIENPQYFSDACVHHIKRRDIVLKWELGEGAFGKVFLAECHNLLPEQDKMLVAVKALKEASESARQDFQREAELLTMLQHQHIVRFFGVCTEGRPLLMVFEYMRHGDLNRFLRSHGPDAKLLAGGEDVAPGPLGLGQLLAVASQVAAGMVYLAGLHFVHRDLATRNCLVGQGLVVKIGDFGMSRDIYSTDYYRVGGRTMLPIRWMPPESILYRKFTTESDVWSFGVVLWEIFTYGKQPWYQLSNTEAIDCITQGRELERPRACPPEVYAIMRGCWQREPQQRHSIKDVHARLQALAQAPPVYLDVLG
Experimental: as §1, §2, §3, §4, §5

IKKalpha (h) = IKKalpha (h) (Homo sapiens, UniProt O15111); assay: Kinase inhibitory assay (panel); type: biochemical; conditions: read-out: % inhibition at 10 µM
Chain of IKKalpha (h) (O15111 whole entry): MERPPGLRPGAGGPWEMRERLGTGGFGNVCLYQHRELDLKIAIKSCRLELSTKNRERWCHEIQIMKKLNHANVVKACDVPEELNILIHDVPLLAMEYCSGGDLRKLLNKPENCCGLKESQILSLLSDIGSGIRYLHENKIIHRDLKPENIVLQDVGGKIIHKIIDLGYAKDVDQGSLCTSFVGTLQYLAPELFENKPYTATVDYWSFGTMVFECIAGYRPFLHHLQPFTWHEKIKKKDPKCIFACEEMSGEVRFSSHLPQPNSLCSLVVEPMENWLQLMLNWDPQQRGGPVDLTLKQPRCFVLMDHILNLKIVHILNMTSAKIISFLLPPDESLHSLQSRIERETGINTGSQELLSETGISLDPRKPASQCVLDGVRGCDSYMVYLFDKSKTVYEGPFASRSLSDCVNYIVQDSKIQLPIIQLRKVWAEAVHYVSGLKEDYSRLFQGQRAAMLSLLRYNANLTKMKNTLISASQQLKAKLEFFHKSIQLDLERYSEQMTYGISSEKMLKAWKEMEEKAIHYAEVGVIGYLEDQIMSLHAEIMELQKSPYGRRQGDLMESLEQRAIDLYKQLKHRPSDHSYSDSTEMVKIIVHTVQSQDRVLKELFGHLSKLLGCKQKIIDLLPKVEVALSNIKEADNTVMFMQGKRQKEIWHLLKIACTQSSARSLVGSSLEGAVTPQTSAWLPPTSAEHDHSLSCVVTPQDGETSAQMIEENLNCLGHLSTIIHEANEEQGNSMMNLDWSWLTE
Experimental: as §1, §2, §3, §4, §5

Src kinase (h) = Src kinase (h) (Homo sapiens, UniProt P12931); assay: Kinase inhibitory assay (panel); type: biochemical; conditions: read-out: % inhibition at 10 µM
Experimental: as §1, §2, §3, §4, §5

human DNMT1 (hDNMT1) = target: T2, human DNMT1 (hDNMT1) (Homo sapiens, UniProt P26358); assay: DNMT1 assay ([methyl-3H]SAM, Flashplate); type: biochemical; conditions: mean of at least two independent experiments; read-out: Enzyme Inhibition (EC50 ± SD) hDNMT1
T2 construct: His; made in house
Experimental: His-DNMT1 (182 kDa, human) was cloned, expressed, and purified as described by Lee et al.. The DNMT1 assay was performed according to Gros et al.. […] The reaction was incubated 2 h at 37 °C, then 8 µL of the solution are transferred into a streptavidin 96-well scintillant coated Flashplate containing 190 µL of 20 mM SAH in 50 mM Tris–HCl (pH 7.4). The Flashplate is agitated for 1 h at room temperature and washed. The plate is read with TopCount (PerkinElmer). In this assay, the negative and positive controls were defined as wells without enzyme and wells with only DMSO, respectively.

Lck kinase (h) = Lck kinase (h) (Homo sapiens, UniProt P06239); assay: Kinase inhibitory assay (panel); type: biochemical; conditions: read-out: % inhibition at 10 µM
Experimental: as §1, §2, §3, §4, §5

FGFR2 kinase (h) = FGFR2 kinase (h) (Homo sapiens, UniProt P21802); assay: Kinase inhibitory assay (panel); type: biochemical; conditions: read-out: % inhibition at 10 µM
Experimental: as §1, §2, §3, §4, §5

JNK1 (h) = JNK1 (h) (Homo sapiens, UniProt P45983); assay: Kinase inhibitory assay (panel); type: biochemical; conditions: read-out: % inhibition at 10 µM
Experimental: as §1, §2, §3, §4, §5

p38alpha kinase (h) = p38alpha kinase (h) (Homo sapiens, UniProt Q16539); assay: Kinase inhibitory assay (panel); type: biochemical; conditions: read-out: % inhibition at 10 µM
Experimental: as §1, §2, §3, §4, §5

EphA2 kinase (h) = EphA2 kinase (h) (Homo sapiens, UniProt P29317); assay: Kinase inhibitory assay (panel); type: biochemical; conditions: read-out: % inhibition at 10 µM
Experimental: as §1, §2, §3, §4, §5

CHK1 (h) = CHK1 (h) (Homo sapiens, UniProt O14757); assay: Kinase inhibitory assay (panel); type: biochemical; conditions: read-out: % inhibition at 10 µM
Experimental: as §1, §2, §3, §4, §5

AurA/Aur2 kinase (h) = AurA/Aur2 kinase (h) (Homo sapiens, UniProt O14965); assay: Kinase inhibitory assay (panel); type: biochemical; conditions: read-out: % inhibition at 10 µM
Experimental: as §1, §2, §3, §4, §5

EphA3 kinase (h) = EphA3 kinase (h) (Homo sapiens, UniProt P29320); assay: Kinase inhibitory assay (panel); type: biochemical; conditions: read-out: % inhibition at 10 µM
Experimental: as §1, §2, §3, §4, §5

MNK2 (h) = MNK2 (h) (Homo sapiens, UniProt Q9HBH9); assay: Kinase inhibitory assay (panel); type: biochemical; conditions: read-out: % inhibition at 10 µM
Experimental: as §1, §2, §3, §4, §5

JAK3 (h) = JAK3 (h) (Homo sapiens, UniProt P52333); assay: Kinase inhibitory assay (panel); type: biochemical; conditions: read-out: % inhibition at 10 µM
Experimental: as §1, §2, §3, §4, §5

CDC2/CDK1 (h) (cycB) = CDC2/CDK1 (h) (cycB) (Homo sapiens, UniProt P06493); assay: Kinase inhibitory assay (panel); type: biochemical; conditions: read-out: % inhibition at 10 µM
Experimental: as §1, §2, §3, §4, §5

c-Met kinase (h) = c-Met kinase (h) (Homo sapiens, UniProt P08581); assay: Kinase inhibitory assay (panel); type: biochemical; conditions: read-out: % inhibition at 10 µM
Experimental: as §1, §2, §3, §4, §5

ERK2 (h) (P42mapk) = ERK2 (h) (P42mapk) (Homo sapiens, UniProt P28482); assay: Kinase inhibitory assay (panel); type: biochemical; conditions: read-out: % inhibition at 10 µM
Experimental: as §1, §2, §3, §4, §5

GSK3beta (h) = GSK3beta (h) (Homo sapiens, UniProt P49841); assay: Kinase inhibitory assay (panel); type: biochemical; conditions: read-out: % inhibition at 10 µM
Experimental: as §1, §2, §3, §4, §5

Abl kinase (h) = Abl kinase (h) (Homo sapiens, UniProt P00519); assay: Kinase inhibitory assay (panel); type: biochemical; conditions: read-out: % inhibition at 10 µM
Experimental: as §1, §2, §3, §4, §5

PDK1 (h) = PDK1 (h) (Homo sapiens, UniProt O15530); assay: Kinase inhibitory assay (panel); type: biochemical; conditions: read-out: % inhibition at 10 µM
Experimental: as §1, §2, §3, §4, §5

Akt1/PKBalpha (h) = Akt1/PKBalpha (h) (Homo sapiens, UniProt P31749); assay: Kinase inhibitory assay (panel); type: biochemical; conditions: read-out: % inhibition at 10 µM
Experimental: as §1, §2, §3, §4, §5

PAK4 (h) = PAK4 (h) (Homo sapiens, UniProt O96013); assay: Kinase inhibitory assay (panel); type: biochemical; conditions: read-out: % inhibition at 10 µM
Experimental: as §1, §2, §3, §4, §5

T1 sequence (Q9Y6K1 whole entry, looked up): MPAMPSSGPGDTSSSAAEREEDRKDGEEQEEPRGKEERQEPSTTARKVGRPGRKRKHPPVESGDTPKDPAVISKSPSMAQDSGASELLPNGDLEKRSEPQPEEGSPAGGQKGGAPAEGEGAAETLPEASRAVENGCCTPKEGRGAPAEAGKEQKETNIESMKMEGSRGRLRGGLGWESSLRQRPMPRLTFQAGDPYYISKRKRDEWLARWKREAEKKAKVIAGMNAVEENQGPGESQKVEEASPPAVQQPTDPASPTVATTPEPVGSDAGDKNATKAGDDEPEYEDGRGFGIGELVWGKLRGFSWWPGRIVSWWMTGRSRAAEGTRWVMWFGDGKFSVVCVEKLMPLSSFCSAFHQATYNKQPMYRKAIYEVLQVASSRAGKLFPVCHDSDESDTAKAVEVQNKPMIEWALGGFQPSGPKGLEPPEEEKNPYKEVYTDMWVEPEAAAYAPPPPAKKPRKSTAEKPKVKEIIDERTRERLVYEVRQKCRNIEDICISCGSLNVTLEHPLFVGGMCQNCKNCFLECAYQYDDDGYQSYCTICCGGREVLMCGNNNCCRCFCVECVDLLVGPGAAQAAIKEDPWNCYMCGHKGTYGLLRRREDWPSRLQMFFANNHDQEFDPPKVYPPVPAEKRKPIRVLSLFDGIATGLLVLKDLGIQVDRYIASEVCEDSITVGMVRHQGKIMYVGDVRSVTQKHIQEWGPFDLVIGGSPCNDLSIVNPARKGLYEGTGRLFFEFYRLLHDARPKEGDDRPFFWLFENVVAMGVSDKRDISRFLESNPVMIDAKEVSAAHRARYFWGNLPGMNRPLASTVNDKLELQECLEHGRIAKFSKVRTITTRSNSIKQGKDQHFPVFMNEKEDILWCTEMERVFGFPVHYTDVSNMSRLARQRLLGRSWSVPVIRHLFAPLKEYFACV

For `O=C(Nc1cccc(Nc2ccnc3ccccc23)c1)c1cccc(Nc2ccnc3ccccc23)c1` [Compound 2b], the “DNMT3A protein level (western blot)” value (DNMT3A protein; HCT116, 1 µM) was “decrease”, the inhibition at 10 µM (RAF-1 kinase (h)) was 79% and the inhibition at 10 µM (IRK (h) (InsR)) was 86%. The inhibition at 10 µM (PKCbeta 2 (h)) was 79%, the inhibition at 10 µM (TRKA (h)) was 98% and the inhibition at 10 µM (IKKalpha (h)) was 70%. It also gave an inhibition at 10 µM (Src kinase (h)) of 94%.

For `O=C(Nc1cccc(Nc2ccnc3ccccc23)c1)c1ccc(Nc2ccnc3ccccc23)cc1` [Compound 2c], the EC50 (human DNMT1 (hDNMT1)) was 22 ± 3 µM.

`O=C(Nc1ccc(Nc2ccnc3ccccc23)cc1)c1cccc(Nc2ccnc3ccccc23)c1` [Compound 2a] was tested, and the EC50 (human DNMT1 (hDNMT1)) was 23 ± 4 µM, the inhibition at 10 µM (Lck kinase (h)) was 23% and the inhibition at 10 µM (FGFR2 kinase (h)) was 1%. It also gave an inhibition at 10 µM (JNK1 (h)) of -91%, an inhibition at 10 µM (p38alpha kinase (h)) of -64% and an inhibition at 10 µM (EphA2 kinase (h)) of -184%. It also gave an inhibition at 10 µM (CHK1 (h)) of 16%, an inhibition at 10 µM (AurA/Aur2 kinase (h)) of -20% and an inhibition at 10 µM (EphA3 kinase (h)) of -57%. The inhibition at 10 µM (RAF-1 kinase (h)) was 79%, the inhibition at 10 µM (MNK2 (h)) was -6% and the inhibition at 10 µM (JAK3 (h)) was -100%. It also gave an inhibition at 10 µM (IRK (h) (InsR)) of 86%, an inhibition at 10 µM (CDC2/CDK1 (h) (cycB)) of 16% and an inhibition at 10 µM (c-Met kinase (h)) of -54%. It also gave an inhibition at 10 µM (PKCbeta 2 (h)) of 79%, an inhibition at 10 µM (ERK2 (h) (P42mapk)) of 9% and an inhibition at 10 µM (GSK3beta (h)) of -72%. The inhibition at 10 µM (TRKA (h)) was 98%, the inhibition at 10 µM (Abl kinase (h)) was 0% and the inhibition at 10 µM (PDK1 (h)) was -169%. For the same molecule, the inhibition at 10 µM (IKKalpha (h)) was 70%, the inhibition at 10 µM (Akt1/PKBalpha (h)) was -178% and the inhibition at 10 µM (PAK4 (h)) was -17%. It also gave an inhibition at 10 µM (Src kinase (h)) of 94%.

With `O=C(Nc1cccc(NC(=O)c2ccc(Nc3ccnc4ccccc34)cc2)c1)OCc1ccccc1` [Compound 4c] the “DNMT3A protein level (western blot)” value (DNMT3A protein; HCT116, 0.1 µM) was “decrease”, the “DNMT3A protein level (western blot)” value (DNMT3A protein; HCT116, 1 µM) was “decrease” and the “DNMT3A protein level (western blot) with bortezomib” value (DNMT3A protein; HCT116, 1 µM, co-treated with bortezomib 10 nM) was “rescued”.
